Results on one compound are retold here after paper PMC2951136 (Journal of neurochemistry, 2009).

The target of the experiment is human dopamine transporter (hDAT) (Homo sapiens, UniProt Q01959). The experiment can be described thus: live-cell confocal imaging of ASP+ accumulation in hDAT-transfected EM4 cells. It counts as cell-based.
human dopamine transporter (hDAT), sequence (Q01959 whole entry): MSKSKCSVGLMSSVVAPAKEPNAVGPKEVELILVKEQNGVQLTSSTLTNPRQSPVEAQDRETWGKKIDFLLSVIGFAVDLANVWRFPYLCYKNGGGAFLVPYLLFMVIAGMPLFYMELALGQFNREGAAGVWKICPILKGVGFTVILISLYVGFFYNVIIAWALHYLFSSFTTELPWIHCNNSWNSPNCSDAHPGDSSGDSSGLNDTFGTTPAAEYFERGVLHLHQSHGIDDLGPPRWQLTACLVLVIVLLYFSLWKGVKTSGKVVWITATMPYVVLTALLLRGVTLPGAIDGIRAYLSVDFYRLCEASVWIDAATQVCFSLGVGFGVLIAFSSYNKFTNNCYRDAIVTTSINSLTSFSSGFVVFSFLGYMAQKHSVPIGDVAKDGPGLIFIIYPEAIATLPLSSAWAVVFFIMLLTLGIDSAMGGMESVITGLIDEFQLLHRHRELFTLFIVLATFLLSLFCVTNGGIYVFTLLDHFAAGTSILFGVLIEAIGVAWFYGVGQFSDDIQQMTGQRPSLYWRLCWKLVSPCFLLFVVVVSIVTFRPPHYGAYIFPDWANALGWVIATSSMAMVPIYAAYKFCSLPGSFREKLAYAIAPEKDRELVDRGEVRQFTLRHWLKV

Regarding `CCCCC/C=C\C/C=C\C/C=C\C/C=C\CCCC(=O)NCCO` [AEA, anandamide], the IC50 (as a rule, the concentration that gives 50% inhibition) amounted to 3.2 ± 0.8 µM.
